Where two headings read alike, the source gives them in different places.
Assays:
porcine pancreatic CEL = target: T1, porcine pancreatic CEL (Sus scrofa, UniProt A0A286ZKB1); experiment: Hydrolysis of 4-MUBO by porcine bile-salt stimulated cholesterol esterase; assay type: biochemical; conditions: 4-MUBO substrate; no bile salts added; Supplementary Fig. 1
T1 sequence (A0A286ZKB1 1-682): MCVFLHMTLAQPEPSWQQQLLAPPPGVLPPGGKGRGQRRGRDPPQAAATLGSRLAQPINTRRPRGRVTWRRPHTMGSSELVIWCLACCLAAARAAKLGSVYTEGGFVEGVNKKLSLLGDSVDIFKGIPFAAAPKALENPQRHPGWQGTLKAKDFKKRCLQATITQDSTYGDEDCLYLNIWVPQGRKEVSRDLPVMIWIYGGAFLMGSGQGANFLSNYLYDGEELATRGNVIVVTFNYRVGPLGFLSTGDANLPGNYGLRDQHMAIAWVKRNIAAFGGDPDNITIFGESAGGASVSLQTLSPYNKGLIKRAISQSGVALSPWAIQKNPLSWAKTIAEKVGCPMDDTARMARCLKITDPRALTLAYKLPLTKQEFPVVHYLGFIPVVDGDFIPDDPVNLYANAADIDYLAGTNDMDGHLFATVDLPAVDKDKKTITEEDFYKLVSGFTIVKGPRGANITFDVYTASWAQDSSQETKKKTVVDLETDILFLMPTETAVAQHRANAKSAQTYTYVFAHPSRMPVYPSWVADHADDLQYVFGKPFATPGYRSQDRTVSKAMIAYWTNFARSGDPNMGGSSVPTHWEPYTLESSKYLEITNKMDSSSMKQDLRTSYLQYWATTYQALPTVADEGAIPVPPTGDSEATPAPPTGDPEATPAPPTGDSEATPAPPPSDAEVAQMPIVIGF

THP-1 macrophages = experiment: Cholesteryl ester retention in cholesterol-loaded THP-1 macrophages; assay type: cell-based, human; conditions: for Total cellular cholesterol content of macrophages / Free cholesterol levels: 50 μM benzil or 10 μM paraoxon, 48-h efflux period; for Free cholesterol levels: vs vehicle
CES1 [1] = target: T2, CES1 (Homo sapiens, UniProt P23141); experiment: Hydrolysis of 4-methylumbelliferyl oleate; assay type: biochemical
T2 sequence (P23141 18-567): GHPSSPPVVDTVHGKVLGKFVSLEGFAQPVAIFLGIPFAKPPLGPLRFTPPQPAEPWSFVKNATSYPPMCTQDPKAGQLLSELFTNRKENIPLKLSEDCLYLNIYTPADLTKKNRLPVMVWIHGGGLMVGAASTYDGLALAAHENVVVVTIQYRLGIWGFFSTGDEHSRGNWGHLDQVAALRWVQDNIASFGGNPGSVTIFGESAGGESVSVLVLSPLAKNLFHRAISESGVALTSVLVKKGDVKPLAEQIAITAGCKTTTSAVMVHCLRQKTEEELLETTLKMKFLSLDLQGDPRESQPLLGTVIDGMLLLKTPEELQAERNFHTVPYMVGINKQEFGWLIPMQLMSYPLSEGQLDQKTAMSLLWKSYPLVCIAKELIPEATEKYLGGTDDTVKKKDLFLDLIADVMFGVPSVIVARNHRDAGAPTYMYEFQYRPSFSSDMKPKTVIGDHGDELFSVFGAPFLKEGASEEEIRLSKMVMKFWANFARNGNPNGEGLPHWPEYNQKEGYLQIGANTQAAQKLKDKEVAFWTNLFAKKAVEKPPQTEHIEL

[2] = tested on: intracellular carboxylesterase activity in U373MG cells; conditions: cited from earlier work
[3] = target: T3, carboxylesterase activity in THP-1 macrophages (Homo sapiens, UniProt P23141); assay type: cell-based
T3 sequence (P23141 18-567): T2 sequence (P23141 18-567)

[4] = target: T4, carboxylesterase activity of human THP-1 cell lysates (CES1) (Homo sapiens, UniProt P23141); assay type: biochemical; conditions: para-nitrophenyl valerate
T4 sequence (P23141 18-567): T2 sequence (P23141 18-567)

[5] = cited from earlier work
[6] = target: T5, carboxylesterase activity (CES1) in intact THP-1 cells (Homo sapiens, UniProt P23141); experiment: Carboxylesterase activity after 24-h treatment of intact THP-1 monocytes; assay type: cell-based; conditions: for Inhibition of carboxylesterase activity in intact THP-1 monocytes: 24 h treatment of intact cells, activity measured in lysates; for Relative effectiveness at inhibiting carboxylesterase activity in intact cells: 24 h treatment, comparison of the three oxons
T5 sequence (P23141 18-567): T2 sequence (P23141 18-567)

THP-1 cells = experiment: Cell viability by Trypan Blue exclusion after oxon exposure; assay type: cell-based, human; conditions: 24 h, concentrations of oxon used, data not shown
CES1 protein expression = experiment: Western blot of CES1 protein in paraoxon-treated THP-1 cells; assay type: cell-based, human; conditions: 10 μM paraoxon 24 h
[7] = tested on: cholesteryl ester hydrolase activity in human THP1 cell lysate; experiment: Hydrolysis of cholesteryl [1-14C]oleate; assay type: biochemical; conditions: 10 μM paraoxon for 10 min before 75 μM cholesteryl [1-14C]oleate
CES1 [8] = target: T2, CES1; assay type: binding
[9] = tested on: lipolytic activity of THP-1 cell lysates; experiment: Hydrolysis of 4-MUBO by THP-1 cell lysates; assay type: biochemical, human; conditions: paraoxon up to 10 μM; Supplementary Fig. 2

SMILES | Inhibition of CEL (porcine pancreatic CEL) | Total cellular cholesterol content of macrophages (THP-1 macrophages) | Free cholesterol levels (THP-1 macrophages) | Inhibition of carboxylesterase activity in cell lysates [4] | Lipophilicity rank among the three oxons [5] | Inhibition of carboxylesterase activity in intact THP-1 monocytes [6] | Relative effectiveness at inhibiting carboxylesterase activity in intact cells [6] | Overall cell viability (THP-1 cells) | other results
O=C(C(=O)c1ccccc1)c1ccccc1 [Benzil, diphenylethane-1,2-dione] | does not inhibit | did not significantly change | similar |  |  |  |  |  | Increase in intracellular cholesteryl ester levels (THP-1 macrophages; 50 μM benzil during 48-h cholesterol efflux period): > 3 fold; Inhibition of lipase activity of CES1 (CES1 [1]): can be inhibited; Inhibition of intracellular carboxylesterase activity ([2]; U373MG cells transfected with plasmids containing mammalian CES cDNA): effective inhibitor; Cell permeability ([2]; U373MG cells): cell-permeable; Cytotoxicity ([2]; U373MG cells): non-cytotoxic; Carboxylesterase activity in cell lysate from treated macrophages [3]: not significantly inhibited
CCOP(=O)(OCC)Oc1nc(Cl)c(Cl)cc1Cl [Chlorpyrifos oxon] |  |  |  | inhibited carboxylesterase activity in cell lysates in a concentration-dependent manner | most lipophilic | inhibited by each oxon in a dose-dependent manner | least effective | did not affect overall cell viability | 
COP(=O)(OC)Oc1ccc([N+](=O)[O-])cc1 [Methyl paraoxon] |  |  |  | inhibited carboxylesterase activity in cell lysates in a concentration-dependent manner | least lipophilic | inhibited by each oxon in a dose-dependent manner |  | did not affect overall cell viability | 
CCOP(=O)(OCC)Oc1ccc([N+](=O)[O-])cc1 [Paraoxon] | very sensitive | did not significantly change | modest but significant reduction | inhibited carboxylesterase activity in cell lysates in a concentration-dependent manner |  | inhibited by each oxon in a dose-dependent manner | most effective | did not affect overall cell viability | Amount of CES1 protein compared to control (vehicle) treated cells (CES1 protein expression): no difference; Intracellular cholesteryl ester retention (THP-1 macrophages; 10 μM paraoxon during 48-h cholesterol efflux): significant increase; Reduction of CEH activity of THP1 cell lysates [7]: 23%; Paraoxon concentrations that completely inhibited FP-biotin labeling of CES1 (CES1 [8]; lysate 1 mg/ml pre-treated 15 min at 37°C, then 2 μM FP-biotin 1 h): > 1 nM; Effect on FP-biotin labeling of CES1 (CES1 [8]; pre-treatment with paraoxon at 0.01 nM): did not prevent labeling; Inhibition of lipolytic activity of THP-1 cell lysates toward 4-MUBO [9]: no significant inhibiton of lipase activity; Inhibition of lipase activity of CES1 (CES1 [1]; 4-MUBO substrate, Supplementary Fig. 1): can be inhibited; Inhibition of carboxylesterase activity in cell lysate from treated macrophages ([3]; 10 μM paraoxon, compared to control cells, p≤0.05): 81%; CES1 activity on native PAGE gels ([6]; intact cells, 10 μM paraoxon 24 h, α,β-naphthyl acetate stain): markedly inhibited

— article PMC2574903 (Biochimica et biophysica acta, 2008)
